ChEMBL document CHEMBL1201862, “PubChem BioAssay data set” (2004)
Activity calls are given as the source filed them.

Key:
Tumor necrosis factor = Tumor necrosis factor (Homo sapiens, UniProt P01375); assay: analog potency on TNFa NF-kB signaling – cell-based, revised, SAR follow-up (AID 2337); type: functional
Major prion protein = Major prion protein (Homo sapiens, UniProt P04156); type: functional, cell-based
Genome polyprotein = Genome polyprotein (dengue virus type 2, UniProt P29990); assay: flavivirus cap methylation enzyme inhibition – biochemical, confirmation dose response, primary screen (AID 588689); type: functional
[1] = biological target: Nucleotide-binding oligomerization domain-containing protein 2 (Homo sapiens, UniProt Q9HC29); assay: inhibition of NOD2-driven NF-kB reporter – cell-based, luminescence, uHTS, HEK293 (AID 1566); type: functional
HEK293 [2] = assay: cells; type: functional, cell-based; details: Homo sapiens
HEK293 [3] = assay: NOD2 signaling inhibitors in MDP-stimulated cells, cell-based, uHTS, luminescence (AID 2001); type: functional; details: Homo sapiens
[4] = biological target: T1, Nucleotide-binding oligomerization domain-containing protein 1 (Homo sapiens, UniProt Q9Y239); assay: blockers of NOD1 pathway activity – revised, SAR follow-up (AID 2333); type: functional
T1 sequence (Q9Y239 whole entry): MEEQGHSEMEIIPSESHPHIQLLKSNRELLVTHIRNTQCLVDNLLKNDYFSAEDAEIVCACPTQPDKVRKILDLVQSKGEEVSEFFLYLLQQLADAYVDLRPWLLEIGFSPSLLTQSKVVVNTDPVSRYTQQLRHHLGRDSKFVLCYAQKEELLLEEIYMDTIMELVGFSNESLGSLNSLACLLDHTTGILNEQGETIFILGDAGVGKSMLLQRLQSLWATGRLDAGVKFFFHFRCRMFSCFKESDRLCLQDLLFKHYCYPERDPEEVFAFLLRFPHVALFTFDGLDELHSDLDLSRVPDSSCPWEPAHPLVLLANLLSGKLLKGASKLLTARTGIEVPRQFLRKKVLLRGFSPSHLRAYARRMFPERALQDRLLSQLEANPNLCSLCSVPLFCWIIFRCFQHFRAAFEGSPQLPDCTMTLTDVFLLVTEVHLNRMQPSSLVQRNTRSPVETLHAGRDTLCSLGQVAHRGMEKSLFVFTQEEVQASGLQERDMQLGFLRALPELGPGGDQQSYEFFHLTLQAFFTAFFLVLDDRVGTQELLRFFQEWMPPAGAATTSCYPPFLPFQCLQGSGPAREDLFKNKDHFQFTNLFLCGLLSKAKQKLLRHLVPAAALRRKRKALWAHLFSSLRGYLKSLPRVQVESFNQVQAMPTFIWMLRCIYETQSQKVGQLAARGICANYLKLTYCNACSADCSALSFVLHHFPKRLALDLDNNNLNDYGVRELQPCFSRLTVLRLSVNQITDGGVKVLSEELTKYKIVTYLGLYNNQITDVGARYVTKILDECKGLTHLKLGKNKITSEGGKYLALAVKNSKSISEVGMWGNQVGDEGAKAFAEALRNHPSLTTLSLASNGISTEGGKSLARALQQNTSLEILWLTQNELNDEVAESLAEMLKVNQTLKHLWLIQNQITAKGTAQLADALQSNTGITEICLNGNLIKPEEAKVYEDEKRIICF

HEK293 [5] = assay: inhibition of NOD1-driven NF-kB reporter – cell-based, luminescence, uHTS, primary screen (AID 1578); type: functional; details: Homo sapiens
HEK293 [6] = assay: cells; details: Homo sapiens
HEK293 [7] = assay: cells; type: functional, cell-based; details: Homo sapiens; remark: listed apart in the source
HEK293 [8] = assay: cells; type: functional, cell-based; details: Homo sapiens; remark: listed apart in the source
[9] = biological target: T2, High affinity choline transporter 1 (Homo sapiens, UniProt Q9GZV3); assay: human choline transporter blockers, potency – cell-based, 5-point CRC, membrane potential dye, dose response (AID 504840); type: functional
T2 sequence (Q9GZV3 whole entry): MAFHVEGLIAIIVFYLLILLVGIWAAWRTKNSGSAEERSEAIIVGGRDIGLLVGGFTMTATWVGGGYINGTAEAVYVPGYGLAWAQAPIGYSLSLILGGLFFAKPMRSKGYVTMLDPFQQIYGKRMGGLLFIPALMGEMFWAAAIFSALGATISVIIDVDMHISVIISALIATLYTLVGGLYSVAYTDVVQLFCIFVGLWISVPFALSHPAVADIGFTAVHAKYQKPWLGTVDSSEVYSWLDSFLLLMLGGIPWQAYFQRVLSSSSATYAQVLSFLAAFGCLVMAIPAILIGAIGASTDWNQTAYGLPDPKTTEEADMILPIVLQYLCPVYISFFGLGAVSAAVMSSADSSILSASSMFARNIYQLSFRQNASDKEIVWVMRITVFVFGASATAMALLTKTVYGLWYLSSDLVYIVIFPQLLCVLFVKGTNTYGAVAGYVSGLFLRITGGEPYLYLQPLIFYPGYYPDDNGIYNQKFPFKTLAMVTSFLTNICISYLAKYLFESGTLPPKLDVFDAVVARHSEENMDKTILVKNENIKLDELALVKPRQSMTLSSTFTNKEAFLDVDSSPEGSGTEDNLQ

[10] = biological target: T3, Disintegrin and metalloproteinase domain-containing protein 17 (Homo sapiens, UniProt P78536); assay: inhibition of ADAM17 substrate cleavage – biochemical, quenched FRET substrate, counter-screen for ADAM10 exosite inhibitor project, dose response (AID 743253)
[11] = potency of ADAM10 substrate cleavage blockers – biochemical, QFRET, dose response (AID 743254);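 note: ADAM10 enzyme with the DM2 quenched FRET peptide as substrate; EDANS fluorescence gain as the protease cuts the substrate; inhibitor potency against ADAM10 proteolytic activity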
Beta-galactosidase = Beta-galactosidase (Escherichia coli, UniProt Q8VNN2); assay: Dose response counterscreen for EBI2 assay utilizing the enzyme, b-galactosidase.; type: functional
[12] = biological target: SWI/SNF-related matrix-associated actin-dependent regulator of chromatin subfamily A member 2 (Homo sapiens, UniProt P51531); assay: Luminescence-based cell-based high throughput dose response assay to identify activators of the function of SWI/SNF related, matrix associated, actin dependent regulator of chromatin, subfamily a, member 2 (SMARCA2, BRM).; type: functional
[13] = Counterscreen for activators of the function of SWI/SNF related, matrix associated, actin dependent regulator of chromatin, subfamily a, member 2 (SMARCA2, BRM): Luminescence-based cell-based high throughput dose response assay to identify non-selective compounds using the VP16 reporter assay.; type: functional
[14] = Trypanosoma cruzi growth suppression in host cells – NIH3T3 host cells, beta-gal luminescence, confirmation (AID 2044); type: functional, cell-based;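 note: intracellular parasites grown in NIH/3T3 mouse fibroblasts as host cells; luminescent beta-galactosidase reporter signal from transgenic T. cruzi replicating inside host cells; inhibitors lower the luminescence signal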
[15] = NIH3T3 cell viability loss – ATP luminescence, mouse fibroblasts, counter-screen, dose response (AID 2010); type: functional, cell-based;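 note: cells exposed to compound for about 90 hours before reading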
Protein skinhead-1 = biological target: T4, Protein skinhead-1 (Caenorhabditis elegans, UniProt P34707); type: functional
T4 sequence (P34707 whole entry): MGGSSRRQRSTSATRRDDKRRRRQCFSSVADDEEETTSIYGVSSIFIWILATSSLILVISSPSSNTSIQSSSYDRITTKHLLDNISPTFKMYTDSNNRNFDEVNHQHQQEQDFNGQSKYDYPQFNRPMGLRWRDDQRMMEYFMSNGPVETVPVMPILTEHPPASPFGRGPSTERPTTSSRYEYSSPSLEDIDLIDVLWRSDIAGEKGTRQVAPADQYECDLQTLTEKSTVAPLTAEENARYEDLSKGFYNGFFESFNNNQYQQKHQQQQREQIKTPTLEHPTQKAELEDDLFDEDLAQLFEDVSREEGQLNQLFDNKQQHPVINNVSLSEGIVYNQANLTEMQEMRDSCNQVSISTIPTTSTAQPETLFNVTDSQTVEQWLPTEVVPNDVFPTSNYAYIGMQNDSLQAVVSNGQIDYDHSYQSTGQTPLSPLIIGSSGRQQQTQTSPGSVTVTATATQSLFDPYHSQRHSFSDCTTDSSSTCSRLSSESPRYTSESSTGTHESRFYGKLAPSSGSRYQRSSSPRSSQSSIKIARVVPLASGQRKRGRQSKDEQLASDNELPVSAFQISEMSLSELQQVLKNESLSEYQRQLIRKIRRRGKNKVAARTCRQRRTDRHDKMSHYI

[16] = biological target: T3, Disintegrin and metalloproteinase domain-containing protein 17; assay: exosite inhibitors of ADAM17, dose response, biochemical (AID 743260)
[17] = inhibition of ADAM10 peptide cleavage – biochemical, FRET peptide substrate, recombinant human ADAM10, selectivity assay for ADAM17 exosite inhibitor project, dose response (AID 743259);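 note: ADAM10 enzyme cleaving a FRET peptide substrate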

COc1cc(C(=O)Nc2scc(-c3ccc(Br)cc3)c2C(=O)O)cc(OC)c1OC
IC50 (Tumor necrosis factor): 6.88 µM (active)
IC50 (Major prion protein): 5.71 µM (active)
IC50 (cells): > 138 µM (inactive)
IC50 (Genome polyprotein): 58 µM (active)
EC50 [1]: 13.9 µM (active)
IC50 (HEK293 [2]): 19 µM (active)
IC50 (HEK293 [3]): 13.2 µM (inactive)
IC50 [4]: 5.83 µM (active)
EC50 (HEK293 [5]): 3.97 µM (active)
IC50 (HEK293 [6]): 13.6 µM (active)
IC50 (HEK293 [7]): > 20 µM (inactive)
IC50 (HEK293 [8]): > 20 µM (inactive)

Cc1csc(NC(=O)CSc2nc(C(C)C)nc3ccccc23)n1
IC50 (Major prion protein): 2.05 µM (active)
IC50 (cells): 69.1 µM (inactive)
IC50 [9]: 7.94 µM (active)

CCC1CO/C(=C(\C(Cl)=C(Cl)Cl)[N+](=O)[O-])N1 (configuration not stated)
IC50 [10]: 27.9 µM (inactive)
IC50 [11]: 14.9 µM (inactive)

O=C(c1ccc2ccccc2c1)N1CCN(c2ccc(C(F)(F)F)cn2)CC1
IC50 (Beta-galactosidase): > 80 µM (inactive)

COC(=O)Nc1ccc(OCc2ccccc2)cc1
EC50 [12]: > 91.2 µM (inactive)
EC50 [13]: > 91.2 µM (inactive)

O=C(c1cc2ccccc2o1)N1CCN(c2ccccc2Cl)CC1
IC50 (Beta-galactosidase): > 80 µM (inactive)

CC(C)(C)OC(=O)NCCCC[C@H](NC(=O)c1[nH]cnc1C(=O)NC(c1ccccc1)c1ccccc1)C(=O)OC(C)(C)C
EC50 [14]: 3.48 µM (active)
IC50 [10]: > 69.5 µM (inactive)
EC50 [15]: > 60 µM (not active)
IC50 [11]: 10.6 µM (inactive)

O=C(c1cccs1)N1CCc2c([nH]c3ccccc23)C1c1ccc(Cl)cc1 (configuration not stated)
IC50 (Protein skinhead-1): > 100 µM (inactive)
IC50 [16]: > 69.5 µM (inactive)
IC50 [17]: 32.4 µM (inactive)
IC50 [10]: > 69.5 µM (inactive)
IC50 [11]: > 69.5 µM (inactive)

CCC1NC(=O)c2cc3ccccc3cc2-n2c1nc1cc(C)cc(C)c1c2=O (configuration not stated)
IC50 (Beta-galactosidase): > 80 µM (inactive)

Nc1nc2ccc(Cl)cc2cc1C(=O)NCc1ccccc1Br
IC50 (Major prion protein): 7.35 µM (active)
IC50 (cells): 46.3 µM (inactive)

Cc1ccc(-c2cc(C(=O)NN=Cc3cccc(OCc4ccccc4)c3)[nH]n2)cc1C
IC50 [16]: > 69.5 µM (inactive)
IC50 [17]: > 69.5 µM (inactive)

O=C(CSc1nc2ccccc2s1)N/N=C/c1ccco1
EC50 [12]: > 91.2 µM (inactive)
EC50 [13]: > 91.2 µM (inactive)
